Measurements as given in ChEMBL document CHEMBL1145738, “Peptidyl aldehyde inhibitors of calpain incorporating P2-proline mimetics” (Bioorg Med Chem Lett, 2003).
Non-standard residues stand in square brackets, D forms with d. Residues, ends and D or L forms follow the SMILES beside them. ξ: configuration not given here. *: point of attachment. Tos = Cc1ccc(S(=O)(=O)*)cc1; ξF = NC(Cc1ccccc1)C(=O)O; Pip = O=C(O)[CH]1CCCCN1; Aze = O=C(O)[CH]1CCN1

How the values were obtained:
Calpain small subunit 1 [1] = target: T1, Calpain small subunit 1 (Sus scrofa, UniProt P04574); assay: Compound tested for inhibition of porcine Calpain 1
T1 sequence (P04574 whole entry): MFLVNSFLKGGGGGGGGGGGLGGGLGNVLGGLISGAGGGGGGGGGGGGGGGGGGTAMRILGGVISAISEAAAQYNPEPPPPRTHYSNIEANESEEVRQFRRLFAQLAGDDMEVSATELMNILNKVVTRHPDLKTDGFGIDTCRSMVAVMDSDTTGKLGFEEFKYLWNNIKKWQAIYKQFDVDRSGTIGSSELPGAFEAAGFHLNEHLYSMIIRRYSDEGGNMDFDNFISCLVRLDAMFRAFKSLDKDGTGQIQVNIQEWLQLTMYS

Cathepsin B [2] = target: T2, Cathepsin B (Homo sapiens, UniProt P07858); assay: (§1) Selectivity ratio of cathepsin B to calpain I
Calpain small subunit 1 [3] = target: T1, Calpain small subunit 1; assay: Compound tested for inhibition of porcine calpain I
Cathepsin B [4] = target: T2, Cathepsin B; assay: Compound tested for inhibition of human liver cathepsin B
[5] = as §1
Cathepsin B [6] = target: T2, Cathepsin B; assay: Compound tested for inhibition of human liver Cathepsin B

Ki (Calpain small subunit 1 [1]) [nM] | Selectivity ratio (Cathepsin B [2]) | Ki (Calpain small subunit 1 [3]) [nM] | Ki (Cathepsin B [4]) [nM] | Selectivity ratio [5] | Ki (Cathepsin B [6]) [nM] | SMILES
70 |  |  |  |  |  | Cc1ccc(S(=O)(=O)N2CCSC2C(=O)NC(C=O)Cc2ccccc2)cc1 (stereo not drawn)
 | 4 | 20 | 70 |  |  | Cc1ccc(S(=O)(=O)N[C@@H](CC(C)C)C(=O)NC(C=O)Cc2ccccc2)cc1 (stereo partly drawn) (Tos-Leu-[ξF]-aldehyde)
80 |  |  |  | 151 | 12100 | Cc1ccc(S(=O)(=O)N2CCCC2C(=O)NC(C=O)Cc2ccccc2)cc1 (stereo not drawn) (Tos-Pro-Phe-aldehyde; configuration not given here)
250 |  |  |  | 11 | 2750 | Cc1ccc(S(=O)(=O)N2CCC2C(=O)NC(C=O)Cc2ccccc2)cc1 (stereo not drawn) (Tos-[Aze]-Phe-aldehyde; configuration not given here)
 | 10 | 540 | 5260 |  |  | Cc1ccc(S(=O)(=O)N2CCCCC2C(=O)NC(C=O)Cc2ccccc2)cc1 (stereo not drawn) (Tos-[Pip]-Phe-aldehyde; configuration not given here)
